Here are results for five compounds from patent US6599748B1, “Hardness indicator composition and method of water hardness analysis” (Miura Co., Ltd., priority 1999, dated 2003).

The nature of series [1]: Ca chelate stability constant (chelating power with calcium). In kind it is physicochemical. The source says: […]. […] […].
The text on series [2]:
Therefore, the desensitizer to be added to the metal indicator is explained. […] However, the desensitizer differs from the metal indicator in that the metal indicator forms complex ions in combination with all hardness-component metal ions, while the desensitizer forms complex ions in combination with part of the hardness-component metal ions. […] Symbol “ ” in results represents usableness as the desensitizer, and “×” represents unusableness as the desensitizer.
Accordingly, Table 1 show the results of judgment determined by taking into account these conditions.

Where two headings read alike, the source gives them in different places. Where only a bound is given, the exact number is not on record here.

In the case of `O=C([O-])CC(O)(CC(=O)O)C(=O)[O-].[K+].[K+]` [2K citrate], in series [1], the “Ca chelate stability constant, logK” value is recorded as less than 2.0. For `O=C([O-])CNCC(=O)[O-].[K+].[K+]` [2K iminodiacetate], the “Ca chelate stability constant, logK” value in series [1] came to 2.59.

For `O=C([O-])CC(O)(CC(=O)[O-])C(=O)[O-].[Na+].[Na+].[Na+]` [2Na citrate, sodium citrate], in series [1] (chelating power with calcium), the “Ca chelate stability constant, logK” value is less than 2.0. On to `O=C([O-])CNCC(=O)[O-].[Na+].[Na+]` [2Na iminodiacetate, sodium iminodiacetate], for which the “Ca chelate stability constant, logK” value in series [1] turned out to be 2.59. Besides, the “Solubility, g/100 g water” value in series [2] was determined as 10 g/100 g water.

Regarding sodium polyacrylate [Na polyacrylate], the “Ca chelate stability constant, logK” value in series [1] was less than 2.0. In series [2], the “Solubility, g/100 g water” value is listed as “over 40 g/100 g water”.
